Laboratory results as given in patent publication US20070037739A1, “Compounds useful in coating stents to prevent and treat stenosis and restenosis” (Medlogics Device Corporation, priority 2003, published 2007).
≈ marks a conversion by molar mass, not a printed value. Peptide text beside a SMILES is read from it.

How the values were obtained:
[1] = test system: U937 cells; assay: TNF-induced DNA fragmentation in U937 cells; type: cell-based
Description: TNF-α-induced apoptosis in U937 monocytic leukemia cells can be used to evaluate the mechanism of apoptosis and its pharmacological manipulation in various diseases, including inflammation. This can be measured by internucleosomal DNA cleavage (Wright, S. C.; Kumar, P.; Tam, A. W.; Shen, N.; Varma, M.; Larrick, J. W. Apoptosis and DNA fragmentation precede TNF-induced cytolysis in U937 cells. J. Cell. Biochem., 1992, 48, 344-355). It has been shown that signal transduction pathways leading to apoptosis depend on the generation of free radicals (Buttke, T. M.; Sandstrom, P. A. Oxidative stress as a mediator of apoptosis. Immunol. Today, 1994, 15, 7-10) and alterations in the intracellular redox status through depletion of […] glutathione (GSH) (Ghibelli, L.; Coppola, S.; Rotilio, G.; Lafavia, E.; Maresca, V.; Ciriolo, M. R. Nonoxidative loss of gluthione in apoptosis via GSH extrusion. Biochem. Biophys. Res. Comm. 1995, 216, 313-320; van den Dobbelsteen, D. J.; Stefen, C.; Nobel, I.; Schlegel, J.; Cotgreave, I. A; Orrenius, S.; Slater, A. R. G. Rapid and specific efflux of reduced glutathione during apoptosis induced by anti-Fas/APO-1 antibody. J. Cell. Biochem., 1996, 271, 15420-15427).

[2] = Balloon-induced intimal injury (restenosis); type: in vivo; conditions: DAA-1 treated animals
Description: Following balloon-induced […] intimal injury, rats were give daily intravenous saline or DAA-I at 15, 30 or 45 pmol/kg×14d.

[3] = test system: peripheral blood mononuclear cells (PBMNC); conditions: 100 μg/ml; mycobacterial 60 kDa heat shock protein 5 μg/ml; six RA patients; cited from earlier work
[4] = test system: PBMNC; conditions: LPS- and PG-stimulated PBMNC, healthy human donors; cited from earlier work
[5] = test system: neutrophils; conditions: PMA- and zymosan-stimulated neutrophils, healthy human volunteers; cited from earlier work
[6] = test system: neutrophils; conditions: PMA-stimulated rat neutrophils; cited from earlier work
[7] = molecular target: T1, NADPH oxidase (Homo sapiens, UniProt P04839); conditions: read-out: IC50 to inhibit NADPH oxidase activity; cited from earlier work
T1 sequence (P04839 2-570 limits assumed): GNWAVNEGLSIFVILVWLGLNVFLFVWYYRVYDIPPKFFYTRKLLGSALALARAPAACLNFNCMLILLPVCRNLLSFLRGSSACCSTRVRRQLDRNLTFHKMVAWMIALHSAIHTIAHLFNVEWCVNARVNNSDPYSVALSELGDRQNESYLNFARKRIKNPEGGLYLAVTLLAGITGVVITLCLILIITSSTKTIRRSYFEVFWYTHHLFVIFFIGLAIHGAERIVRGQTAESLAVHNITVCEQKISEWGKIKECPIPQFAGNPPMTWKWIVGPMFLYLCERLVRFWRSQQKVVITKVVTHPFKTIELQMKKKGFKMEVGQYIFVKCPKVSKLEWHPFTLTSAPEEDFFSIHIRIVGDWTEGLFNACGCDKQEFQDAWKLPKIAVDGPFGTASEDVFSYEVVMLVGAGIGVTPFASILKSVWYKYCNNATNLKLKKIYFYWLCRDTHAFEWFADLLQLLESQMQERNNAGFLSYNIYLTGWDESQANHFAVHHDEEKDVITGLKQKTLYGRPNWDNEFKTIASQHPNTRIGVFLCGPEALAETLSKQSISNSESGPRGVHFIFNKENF

[8] = test system: peritoneal macrophages; conditions: cited from earlier work
[9] = test system: J-774A.1 cells; conditions: cited from earlier work
[10] = cited from earlier work
[11] = injected, 400 mg/kg; cited from earlier work
[12] = 12 mg/d through inhalation for four days; cited from earlier work
[13] = test system: human cartilage; conditions: in vitro; cited from earlier work
[14] = test system: pulmonary macrophages; conditions: cited from earlier work
[15] = cited from earlier work; remark: listed apart in the source

With `COc1cc(C(C)=O)cc([N+](=O)[O-])c1O` [Compound 2, 4-Hydroxy-3-methoxy-5-nitroacetophenone] the “IC50 (μg/ml), protective effect against TNF-induced DNA fragmentation” value (“IC50 (μg/ml), protective effect” for short) [1] was 90 µg/mL (≈ 426 µM).
For `COc1cc(C(C)=O)cc(NC(C)=O)c1O` [Compound 4, 5-Acetoamido-4-hydroxy-3-methoxyacetophenone], the “IC50 (μg/ml), protective effect” value [1] was 37 µg/mL (≈ 166 µM) and the “potency compared with apocynin (from IC50 values)” value [1] was “more potent than apocynin”.
In the case of `COc1cc(C(C)=O)cc(N)c1O.Cl` [Compound 3, 5-Amino-4-hydroxy-3-methoxyacetophenone hydrochloride], the “IC50 (μg/ml), protective effect” value [1] is reported as 80 µg/mL.
In the case of `COc1cc(C(C)=O)ccc1OC(C)=O` [Compound 1, 4-Acetoxy-3-methoxyacetophenone], the “IC50 (μg/ml), protective effect” value [1] is reported as 43 µg/mL (≈ 207 µM) and the “potency compared with apocynin (from IC50 values)” value [1] is reported as “more potent than apocynin”.
For `CC[C@H](C)[C@H](NC(=O)[C@H](Cc1ccc(O)cc1)NC(=O)[C@@H](NC(=O)[C@@H](N)CCCNC(=N)N)C(C)C)C(=O)N[C@@H](Cc1c[nH]cn1)C(=O)N1CCC[C@H]1C(=O)N[C@@H](Cc1ccccc1)C(=O)N[C@@H](Cc1c[nH]cn1)C(=O)N[C@@H](CC(C)C)C(=O)O` [DAA-I, Arg-Val-Tyr-IIe-His-pro-Phe-His-Leu] (H-RVYIHPFHL-OH), the toxicity [2] was “no appreciable toxicity was detected”.
For `COc1cc(C(C)=O)ccc1O` [apocynin], the IC50 ([1]; Homo sapiens, U-937, read-out: IC50 (μg/ml), protective effect against TNF-induced DNA fragmentation) is given as 64 µg/mL (≈ 385 µM), the “inhibition of production of IL-1” value [3] is given as “greater than 50%” and the “inhibition of production of TNF-α” value [3] is given as “greater than 50%”. For the same compound, the TNF-α release [4] was “dose-dependently inhibited”, the “concentration inhibiting ROS production by 50%” value [5] was 4 µg/mL and the “production of ROS” value [6] was “competitively inhibited, in a dose-dependent manner”. The IC50 [7] was 9.6 µM, the oxidative burst ([8]; apocynin 10 mM 25 min before myelin and zymosan, controls 75%) was “about 5%” and the phagocytosis of myelin ([8]; rat peritoneal macrophages) was “dose-dependently inhibited”. For the same compound, the “release of superoxide to the medium” value ([9]; 100 μg/ml, cells+LDL+Cu2+ or cells+PMA) was “completely blocked”, the “macrophage-released superoxides, apocynin alone” value ([9]; non-activated cells) was 0.2 nmol superoxide/10^6 cells and the “joint inflammation at lowest dose” value ([10]; 24 μg/kg) was “protected the animals against joint inflammation”. For the same compound, the “joint swelling at highest dose” value ([10]; 200 μg/ml) was “again inhibited joint swelling”, the joint inflammation ([10]; CIA rats, overall) was “significantly inhibited” and the IL-6 production ([10]; CIA rats) was “reduced IL-6 production”. For the same compound, the “swelling after termination of treatment” value ([10]; CIA rats) was “did not result in a flare-up of the swelling”, the “obvious effects on the mice” value [11] was “no obvious effects” and the side effects [12] was “no side effects”. The “cartilage destruction and adverse effects on cartilage” value [13] was “can counteract human RA-inflammation-mediated cartilage destruction without having adverse effects on human cartilage”, the “production of prostaglandin E2” value [14] was “increases the production of prostaglandin E2” and the “decrease of glutathione levels induced by ozone exposure” value ([15]; 5 mg/kg orally, pretreatment) was “almost completed inhibited”. For the same compound, the “mean redox value (glutathione)” value ([15]; apocynin pretreatment, air 15.4%, ozone 32.0%) was 18.3%.
